According to PMC10077475, “DG9-conjugated morpholino rescues phenotype in SMA mice by reaching the CNS via a subcutaneous administration” (JCI Insight, 2023):

Assays:
Format in all cases: in vivo
severe SMA mouse model [1] = assay: Righting reflex test; conditions: 40 mg/kg s.c. at PD0, compared with the other groups
Excerpt: To evaluate the effects of systemic DG9-PMO treatment on muscle strength and the function of motor neurons, we used several functional tests and compared motor function in the treated and NT mice at various time points. We performed the hind limb suspension (HLS) assay and the righting reflex test during the early weeks of life. […] It should be noted that the results beyond PD12 are biased, as only the healthiest unconjugated PMO–, MOE-, and R6G-PMO–treated mice survived to these time points.
This spontaneous ability of the mice to right themselves up was tested from PD2 until the weaning stage PD20. The neonates were placed on their backs, and the time taken to reposition and place all 4 paws on the ground was noted. The recording time was a maximum of 60 seconds. Each neonate underwent 3 trials, with a resting period of at least 10 minutes between trials. The data are expressed as the mean time to complete the righting reflex test ± SEM.

severe SMA mouse model [2] = assay: Whole-body plethysmography, breathing function at PD7; conditions: for respiratory parameters under hypoxia (11% O2): 40 mg/kg s.c. at PD0, PD7
Excerpt: The majority of patients with SMA suffer from compromised breathing functions and rely on an external source of breathing support. To evaluate the effects of DG9-PMO treatment on breathing function, we performed whole-body plethysmography recordings at PD7 under normoxic (21% O2) and hypoxic (11% O2) conditions (Figure 3A). […] The NT mice on the other hand had slow, irregular breathing denoted by a higher coefficient of variation of frequency (CV, a measure of relative variability) and marked apneas (absence of airflow/pressure changes for a period equivalent to or greater than 2 complete respiratory cycles) (Figure 3, B and F).
Measurements were performed in whole-body, cylindrical, transparent, plexiglass plethysmographs (Validyne Engineering) that had 1 inflow and 2 outflow ports for the continuous delivery of fresh room air and removal of expired carbon dioxide ([75], [76]). […] The gas was mixed with gas mixer (GSM-3, CWE), delivered from compressed pure oxygen and pure nitrogen cannisters, being monitored using 0–200 mL/min gas regulators (Porter Instrument Company). […] For PD30, the plethysmograph was recorded at RT of around 22°C. Pressure changes were detected with a pressure transducer (DP 103; Validyne) and signal conditioner (CD-15; Validyne), recorded with data acquisition software (Axoscope) via analog-digital board (Digidata 1322A). […] VT and fR were measured with blood pressure settings using Labchart 8 (ADInstruments). Threshold levels for bursts were set, and bursts were then automatically detected so that frequency (calculated from cycle duration) and VT (calculated from maximal pressure minus minimal pressure) values were interpreted. […]
Respiratory parameters were calculated over an average of 1 minute of continuous plethysmography recordings. […]

severe SMA mouse model [3] = assay: Forelimb grip strength; conditions: 40 mg/kg s.c. at PD0, normalized to body weight
Method: This improvement was further bolstered by the forelimb grip strength assessment at PD30 in the DG9-PMO–treated mice (Figure 1E and Supplemental Figure 2A). […] We evaluated the relationship between the forelimb data and the sex at PD30. […] We also performed a rotarod test PD30 for the 40 mg/kg groups to assess their overall muscle coordination and balance ([41]). We observed that although the unconjugated PMO–treated mice had reduced forelimb grip strength, they were able to balance themselves on the rotating beam similar to DG9-PMO–treated mice owing to their smaller size and weight (Supplemental Figure 2C). Since we had only 2 MOE mice in this experiment, they were not included in the statistics. Taken together, based on conclusive findings from these functional tests, systemic injection of DG9-PMO improves motor function and muscle strength in both neonatal and adult SMA mice.
This assay was conducted as described in Treat NMD protocol SMA_M.2.1.002 ([73]). In short, the mouse is placed on the wire mesh of an automated grip strength meter (Columbus Instruments) such that only the front paws are allowed to grip the metal grid. The mouse is steadily pulled with the help of its tail, such that it lets go of the grid completely. PD30 and PD60 mice were used. Each mouse underwent 3 trials.

## CC(=O)N[C@@H](Cc1ccc(O)cc1)C(=O)N[C@@H](C)C(=O)N[C@H](CCCNC(=N)N)C(=O)N[C@H](C(=O)N[C@@H](CCCNC(=N)N)C(=O)N[C@@H](CCCNC(=N)N)C(=O)N[C@H](CCCNC(=N)N)C(=O)NCC(=O)N1CCC[C@H]1C(=O)N[C@@H](CCCNC(=N)N)C(=O)NCC(=O)N[C@@H](Cc1ccc(O)cc1)C(=O)N[C@@H](C)C(=O)N[C@H](CCCNC(=N)N)C(=O)N[C@H](C(=O)N[C@@H](CCCNC(=N)N)C(=O)N[C@@H](CCCNC(=N)N)C(=O)N[C@H](CCCNC(=N)N)C(=O)NCC(=O)N1CCC[C@H]1C(=O)N[C@@H](CCCNC(=N)N)C(=O)N[C@H](CCCNC(=N)N)C(=O)N1C[C@@H](COP(=O)(N(C)C)N2C[C@@H](COP(=O)(N(C)C)N3C[C@@H](COP(=O)(N(C)C)N4C[C@@H](COP(=O)(N(C)C)N5C[C@@H](COP(=O)(N(C)C)N6C[C@@H](COP(=O)(N(C)C)N7C[C@@H](COP(=O)(N(C)C)N8C[C@@H](COP(=O)(N(C)C)N9C[C@@H](COP(=O)(N(C)C)N%10C[C@@H](COP(=O)(N(C)C)N%11C[C@@H](COP(=O)(N(C)C)N%12C[C@@H](COP(=O)(N(C)C)N%13C[C@@H](COP(=O)(N(C)C)N%14C[C@@H](COP(=O)(N(C)C)N%15C[C@@H](COP(=O)(N(C)C)N%16C[C@@H](COP(=O)(N(C)C)N%17C[C@@H](COP(=O)(N(C)C)N%18C[C@@H](COP(=O)(N(C)C)N%19CCC(C(N)=O)CC%19)O[C@@H](n%19cc(C)c(=O)[nH]c%19=O)C%18)O[C@@H](n%18ccc(N)nc%18=O)C%17)O[C@@H](n%17cnc%18c(N)ncnc%18%17)C%16)O[C@@H](n%16ccc(N)nc%16=O)C%15)O[C@@H](n%15cc(C)c(=O)[nH]c%15=O)C%14)O[C@@H](n%14cc(C)c(=O)[nH]c%14=O)C%13)O[C@@H](n%13cc(C)c(=O)[nH]c%13=O)C%12)O[C@@H](n%12ccc(N)nc%12=O)C%11)O[C@@H](n%11cnc%12c(N)ncnc%12%11)C%10)O[C@@H](n%10cc(C)c(=O)[nH]c%10=O)C9)O[C@@H](n9cnc%10c(N)ncnc%109)C8)O[C@@H](n8cnc9c(N)ncnc98)C7)O[C@@H](n7cc(C)c(=O)[nH]c7=O)C6)O[C@@H](n6cnc7c(=O)[nH]c(N)nc76)C5)O[C@@H](n5ccc(N)nc5=O)C4)O[C@@H](n4cc(C)c(=O)[nH]c4=O)C3)O[C@@H](n3cnc4c(=O)[nH]c(N)nc43)C2)O[C@@H](n2cnc3c(=O)[nH]c(N)nc32)C1)C(C)C)C(C)C (some centres unmarked) [DG9-PMO]
Severe SMA mouse model [1]
  time to right (righting reflex): significantly shorter time to right themselves on their paws between PD6 and PD10
Severe SMA mouse model [2]
  respiratory parameters under hypoxia (11% O2): increase in the respiratory parameters fR, VE, and VT relative to normoxia
Severe SMA mouse model [2]; 40 mg/kg s.c. at PD0, PD7, majority of the mice
  respiratory phenotype under normoxic conditions (21% O2): did not exhibit any respiratory phenotype
Severe SMA mouse model [3]
  forelimb grip force at PD30: forelimb grip force comparable to the Hets and significantly higher than the unconjugated PMO– and MOE-treated mice

## unconjugated PMO: PMO targeting ISS-N1 intron 7 (5′ TCACTTTCATAATGCTGG 3′), purchased from Gene Tools LLC (all phosphorodiamidate morpholino (PMO)) [reference compound]
Severe SMA mouse model [2]
  respiratory parameters under hypoxia (11% O2): slow, weak, and irregular breathing when compared with the Hets
